Assays:
[1] = target: CDK9/cyclin T1 (Homo sapiens) (UniProt O60563+P50750); assay: Inhibition of recombinant human CDK9/cyclin T1 at 10 uM using Ulight-CFFKNIVTPRTPPPSQGK-amide as substrate after 90 mins by fluorescence assay relative to control; format: protein-complex assay
[2] = target: CDK2/Cyclin A2 (Homo sapiens) (UniProt P24941+P20248); assay: Inhibition of recombinant human CDK2/cyclin A at 10 uM using Ulight-CFFKNIVTPRTPPPSQGK-amide as substrate after 15 mins by fluorescence assay relative to control; format: protein-complex assay
CDK9/cyclin T1 = CDK9/cyclin T1 (Homo sapiens, UniProt P50750); assay: Inhibition of recombinant human CDK9/cyclin T1 using Ulight-CFFKNIVTPRTPPPSQGK-amide as substrate after 90 mins by fluorescence assay relative to control; format: protein-complex assay
CDK9/cyclin T1, sequence (O60563 whole entry): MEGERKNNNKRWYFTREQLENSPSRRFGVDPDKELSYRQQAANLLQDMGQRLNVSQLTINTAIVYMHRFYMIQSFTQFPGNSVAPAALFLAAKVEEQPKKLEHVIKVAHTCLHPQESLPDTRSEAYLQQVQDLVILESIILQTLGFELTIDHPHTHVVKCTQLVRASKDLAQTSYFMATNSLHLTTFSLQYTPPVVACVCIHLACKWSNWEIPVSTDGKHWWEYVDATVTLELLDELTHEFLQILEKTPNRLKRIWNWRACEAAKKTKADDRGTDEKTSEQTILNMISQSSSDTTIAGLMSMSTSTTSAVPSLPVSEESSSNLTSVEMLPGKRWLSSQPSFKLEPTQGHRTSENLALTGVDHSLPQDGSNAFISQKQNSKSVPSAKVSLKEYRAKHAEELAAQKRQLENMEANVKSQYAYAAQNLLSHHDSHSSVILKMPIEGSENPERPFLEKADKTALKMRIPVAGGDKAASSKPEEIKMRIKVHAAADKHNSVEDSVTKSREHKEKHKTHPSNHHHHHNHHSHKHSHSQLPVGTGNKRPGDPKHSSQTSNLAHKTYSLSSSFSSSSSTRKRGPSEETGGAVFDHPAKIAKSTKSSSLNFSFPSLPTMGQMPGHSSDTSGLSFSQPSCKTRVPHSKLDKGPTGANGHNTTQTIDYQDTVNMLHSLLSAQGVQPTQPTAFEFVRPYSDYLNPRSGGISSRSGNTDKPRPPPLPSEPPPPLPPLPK
CDK9/cyclin T1, sequence (P50750 whole entry): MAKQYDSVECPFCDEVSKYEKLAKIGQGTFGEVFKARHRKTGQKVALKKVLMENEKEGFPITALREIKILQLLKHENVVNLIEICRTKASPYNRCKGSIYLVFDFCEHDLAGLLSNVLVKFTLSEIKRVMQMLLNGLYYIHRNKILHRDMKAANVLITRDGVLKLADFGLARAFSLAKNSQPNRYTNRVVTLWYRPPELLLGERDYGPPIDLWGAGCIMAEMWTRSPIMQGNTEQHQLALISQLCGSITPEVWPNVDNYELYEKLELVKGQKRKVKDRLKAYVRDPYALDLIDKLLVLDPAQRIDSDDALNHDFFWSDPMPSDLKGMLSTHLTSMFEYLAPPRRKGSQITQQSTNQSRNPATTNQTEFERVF

CDK2/Cyclin A2 = CDK2/Cyclin A2 (Homo sapiens, UniProt P24941); assay: Inhibition of recombinant human CDK2/cyclin A using Ulight-CFFKNIVTPRTPPPSQGK-amide as substrate after 15 mins by fluorescence assay relative to control; format: protein-complex assay
Homo sapiens = species on record: Homo sapiens; assay: Selectivity ratio of IC50 for recombinant human CDK9/cyclin T1 to IC50 for recombinant human CDK2/cyclin A

Row | SMILES | inhibition [1] [%] | inhibition [2] [%] | IC50 (CDK9/cyclin T1) [nM] | IC50 (CDK2/Cyclin A2) [nM] | Ratio IC50 (Homo sapiens)
1 | O=C(Nc1n[nH]c2ncc(-c3ccccc3O)cc12)C1CCCCC1 | 78 | 80 | 3600 | – | –
2 | Nc1n[nH]c(N)c1/N=N/c1ccc(O)cc1 | – | – | – | 13100 | –
3 | N#Cc1ccc(-c2cnc3[nH]nc(NC(=O)C4CCCCC4)c3c2)cc1 | < 10 | < 10 | – | – | –
4 | Nc1n[nH]c2ncc(-c3ccc(F)cc3)cc12 | 38 | 51 | – | – | –
5 | O=C(Nc1n[nH]c2ncc(-c3ccncc3)cc12)C1CCCCC1 | 59 | 59 | – | – | –
6 | O=C(Nc1n[nH]c2ncc(-c3cccc(O)c3)cc12)C1CCCCC1 | 62 | 63 | – | – | –
7 | O=C(O)c1ccc(-c2cnc3[nH]nc(NC(=O)C4CCCCC4)c3c2)cc1 | < 10 | < 10 | – | – | –
8 | COc1ccc(-c2cnc3[nH]nc(N)c3c2)cc1 | < 10 | < 10 | – | – | –
9 | CC(C)c1ccc(-c2cnc3[nH]nc(N)c3c2)cc1 | < 10 | < 10 | – | – | –
10 | Nc1n[nH]c2ncc(-c3cncnc3)cc12 | 50 | 33 | – | – | –
11 | O=C(Nc1n[nH]c2ncc(-c3cncnc3)cc12)C1CCCCC1 | 83 | 96 | 1800 | 360 | –
12 | O=C(Nc1n[nH]c2ncc(-c3ccc([N+](=O)[O-])cc3)cc12)C1CCCCC1 | < 10 | < 10 | – | – | –

Next, values leading:

Row | inhibition [1] [%] | inhibition [2] [%] | IC50 (CDK9/cyclin T1) [nM] | IC50 (CDK2/Cyclin A2) [nM] | Ratio IC50 (Homo sapiens) | SMILES
13 | 64 | 39 | – | – | – | CNCCC(=O)Nc1n[nH]c2ncc(-c3ccc(O)cc3)cc12
14 | 70 | 90 | 2400 | 820 | – | CCC(=O)Nc1n[nH]c2ncc(-c3ccc(O)cc3)cc12
15 | 12 | 63 | 529000 | 2000 | 265 | CCC(CC)C(=O)Nc1n[nH]c2ncc(-c3ccc(O)cc3)cc12
16 | 56 | 52 | – | – | – | CN(C)CC(=O)Nc1n[nH]c2ncc(-c3ccc(O)cc3)cc12
17 | 25 | 70 | – | – | – | O=C(Cc1ccccc1)Nc1n[nH]c2ncc(-c3ccc(O)cc3)cc12
18 | 73 | 98 | 2400 | 660 | – | O=C(CCCl)Nc1n[nH]c2ncc(-c3ccc(O)cc3)cc12
19 | 73 | 87 | 3500 | – | – | CCCCC(=O)Nc1n[nH]c2ncc(-c3ccc(O)cc3)cc12
20 | 48 | 58 | – | – | – | Nc1n[nH]c2ncc(-c3ccc(O)cc3)cc12
21 | 64 | 68 | – | – | – | CNCC(=O)Nc1n[nH]c2ncc(-c3ccc(O)cc3)cc12
22 | 21 | 44 | – | – | – | O=C(CCN1CCOCC1)Nc1n[nH]c2ncc(-c3ccc(O)cc3)cc12
23 | 32 | < 10 | – | – | – | O=C(Nc1n[nH]c2ncc(-c3ccc(F)cc3)cc12)C1CCCCC1
24 | 59 | 77 | – | – | – | CC(C)(C)CC(=O)Nc1n[nH]c2ncc(-c3ccc(O)cc3)cc12
25 | 48 | 59 | – | – | – | CN(C)CCC(=O)Nc1n[nH]c2ncc(-c3ccc(O)cc3)cc12
26 | 49 | 51 | – | – | – | CN1CCN(CCC(=O)Nc2n[nH]c3ncc(-c4ccc(O)cc4)cc23)CC1
27 | 31 | 34 | – | – | – | O=C(Nc1n[nH]c2ncc(-c3ccc(CO)cc3)cc12)C1CCCCC1
28 | 19 | 54 | – | – | – | CC(C)CC(=O)Nc1n[nH]c2ncc(-c3ccc(O)cc3)cc12
29 | 70 | 86 | 10400 | – | – | O=C(Nc1n[nH]c2ncc(-c3ccc(O)cc3)cc12)C1CCCCC1

From ChEMBL document CHEMBL4184312, “Discovery of novel CDK inhibitors via scaffold hopping from CAN508” (Bioorg Med Chem Lett, 2018)
